From article PMC12607891, “A broadly conserved fungal chorismate mutase targets the plant shikimate pathway to regulate salicylic acid production and other secondary metabolites” (mBio, 2025)

Columns and labels:
[1] = target: T1, AtCM1 (Arabidopsis thaliana, UniProt P42738); test: absorbance at […] nm, prephenate converted to phenylpyruvate; format: biochemical; settings: chorismate mutase activity assay; conditions as in cited procedure
T1 construct: gene CM1; His-tagged, pET, E. coli BL21, Ni-NTA
T1 sequence (P42738 66-340): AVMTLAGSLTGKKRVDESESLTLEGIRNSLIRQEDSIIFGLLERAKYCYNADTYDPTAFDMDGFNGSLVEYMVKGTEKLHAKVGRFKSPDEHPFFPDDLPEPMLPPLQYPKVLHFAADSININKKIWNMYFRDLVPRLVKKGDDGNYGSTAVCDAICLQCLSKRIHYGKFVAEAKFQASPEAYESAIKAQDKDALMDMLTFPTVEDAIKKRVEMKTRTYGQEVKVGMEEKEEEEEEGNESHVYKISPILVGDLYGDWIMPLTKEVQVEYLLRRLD

[2] = target: T2, AtCM3 (Arabidopsis thaliana, UniProt Q9C544); test: as above; format: biochemical; settings: chorismate mutase activity assay; conditions as in cited procedure
T2 construct: gene CM3; His-tagged, pET, E. coli BL21, Ni-NTA
T2 sequence (Q9C544 48-316): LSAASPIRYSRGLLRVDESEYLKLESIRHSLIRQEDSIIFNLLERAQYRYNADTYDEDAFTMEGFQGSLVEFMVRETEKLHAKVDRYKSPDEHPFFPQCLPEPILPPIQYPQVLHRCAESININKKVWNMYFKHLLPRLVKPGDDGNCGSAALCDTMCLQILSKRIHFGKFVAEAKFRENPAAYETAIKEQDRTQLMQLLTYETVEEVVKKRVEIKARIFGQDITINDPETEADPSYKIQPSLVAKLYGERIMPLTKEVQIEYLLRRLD

[3] = target: T3, AtCM2 (Arabidopsis thaliana, UniProt Q9S7H4); test: as above; format: biochemical; settings: chorismate mutase activity assay; conditions as in cited procedure
T3 construct: gene CM2; His-tagged, pET, E. coli BL21, Ni-NTA; cytosolic enzyme
T3 sequence (Q9S7H4 1-265): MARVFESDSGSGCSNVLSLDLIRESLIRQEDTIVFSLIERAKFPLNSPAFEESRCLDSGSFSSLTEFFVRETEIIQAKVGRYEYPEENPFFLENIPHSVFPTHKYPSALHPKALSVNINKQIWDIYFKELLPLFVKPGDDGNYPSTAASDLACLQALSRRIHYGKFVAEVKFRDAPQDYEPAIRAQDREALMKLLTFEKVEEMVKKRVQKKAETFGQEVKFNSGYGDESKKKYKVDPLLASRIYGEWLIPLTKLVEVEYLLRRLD

[4] = target: T4, Cmu1 (Mycosarcoma maydis, UniProt A0A0D1DWQ2); test: as above; format: biochemical; settings: weak chorismate mutase activity assay; conditions as in cited procedure
T4 construct: His-tagged, pET, E. coli BL21, Ni-NTA

[5] = target: T5, SsCM1 (Sclerotinia sclerotiorum, UniProt A7F9N9); test: as above; format: biochemical; settings: weak chorismate mutase activity assay; conditions as in cited procedure
T5 construct: gene SS1G_14320; His-tagged, pET, E. coli BL21, Ni-NTA

[6] = target: T6, SsCM1 ΔSP/cTP1-66 (Sclerotinia sclerotiorum, UniProt A7F9N9); test: HPLC of salicylic acid made in E. coli KRX expressing the protein; format: cell-based; settings: endogenous isochorismate of E. coli; 24 °C overnight, IPTG and rhamnose induction; isochorismate pyruvate lyase activity
T6 construct: gene SS1G_14320; residues 1-66 (signal peptide and chloroplast targeting peptide) removed; codon-optimized, pET28a, in E. coli KRX cells
T6 sequence (A7F9N9 entry or part of it, stated change not applied): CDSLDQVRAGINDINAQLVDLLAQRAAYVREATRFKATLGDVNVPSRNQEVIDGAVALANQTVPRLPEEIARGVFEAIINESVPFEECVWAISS

T5 sequence (A7F9N9 entry or part of it): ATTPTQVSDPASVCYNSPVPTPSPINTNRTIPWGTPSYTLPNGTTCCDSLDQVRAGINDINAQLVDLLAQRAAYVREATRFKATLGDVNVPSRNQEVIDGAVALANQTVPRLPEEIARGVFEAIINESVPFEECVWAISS
T4 sequence (A0A0D1DWQ2 22-290): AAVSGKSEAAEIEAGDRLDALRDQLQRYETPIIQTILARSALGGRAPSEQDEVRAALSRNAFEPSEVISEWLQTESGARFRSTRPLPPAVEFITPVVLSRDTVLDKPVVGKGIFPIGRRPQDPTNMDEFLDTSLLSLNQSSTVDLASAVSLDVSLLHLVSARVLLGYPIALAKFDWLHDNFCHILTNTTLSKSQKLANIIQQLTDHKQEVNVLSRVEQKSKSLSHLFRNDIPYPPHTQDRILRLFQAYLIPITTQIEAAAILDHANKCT

`C=C(O[C@@H]1C=C(C(=O)O)C=C[C@H]1O)C(=O)O` [chorismate] was tested. Which “absorbance at 320 nm, prephenate converted to phenylpyruvate” value (“absorbance at 320 nm” for short) [1] did it give?
Its value is “all tested chorismate mutases are able to convert chorismate into prephenate”.

And the “absorbance at 320 nm” value [2]?
The value was “all tested chorismate mutases are able to convert chorismate into prephenate”.

What about the “absorbance at 320 nm” value [3] of the same compound?
Its value is “all tested chorismate mutases are able to convert chorismate into prephenate”.

What about the “absorbance at 320 nm” value [4] of the same compound?
Its value is “all tested chorismate mutases are able to convert chorismate into prephenate”.

And the “absorbance at 320 nm” value [5]?
Its value is “all tested chorismate mutases are able to convert chorismate into prephenate”.

For `C=C(O[C@H]1C=CC=C(C(=O)O)[C@@H]1O)C(=O)O` [isochorismate], which “HPLC of salicylic acid made in E. coli KRX expressing the protein” value [6] is on record?
Its value is “SsCM1 possesses some IPL activity when expressed in E. coli”.
